The results in this text go back to ChEMBL document CHEMBL2074508, “Functional characterization of the human multidrug transporter, ABCG2, expressed in insect cells” (Biochem Biophys Res Commun, 2001).

In one assay the target is T1, Broad substrate specificity ATP-binding cassette transporter ABCG2 (Homo sapiens, UniProt Q9UNQ0).
T1 sequence (Q9UNQ0 whole entry): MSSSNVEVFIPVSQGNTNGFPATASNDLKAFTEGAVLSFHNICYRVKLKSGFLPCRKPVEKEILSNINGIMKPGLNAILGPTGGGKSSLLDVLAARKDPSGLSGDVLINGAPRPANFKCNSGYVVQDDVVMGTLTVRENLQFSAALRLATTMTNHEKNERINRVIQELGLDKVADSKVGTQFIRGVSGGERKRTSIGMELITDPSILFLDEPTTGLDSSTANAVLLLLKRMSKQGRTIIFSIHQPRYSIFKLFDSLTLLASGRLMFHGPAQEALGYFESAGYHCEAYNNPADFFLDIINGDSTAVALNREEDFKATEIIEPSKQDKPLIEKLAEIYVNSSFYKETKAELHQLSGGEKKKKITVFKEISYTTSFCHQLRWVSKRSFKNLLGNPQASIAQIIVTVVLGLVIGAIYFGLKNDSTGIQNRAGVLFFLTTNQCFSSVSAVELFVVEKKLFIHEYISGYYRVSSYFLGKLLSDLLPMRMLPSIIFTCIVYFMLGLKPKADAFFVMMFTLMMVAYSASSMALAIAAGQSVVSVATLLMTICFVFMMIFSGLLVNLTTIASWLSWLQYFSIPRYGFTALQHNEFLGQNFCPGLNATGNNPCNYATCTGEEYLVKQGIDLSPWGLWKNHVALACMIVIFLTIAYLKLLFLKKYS
The experiment in a line: TP_TRANSPORTER: inhibition of ATPase in membrane vesicle from BCRP-expressing Sf9 cells. The assay is classed as functional, cell membranes.
Details: not given
`COc1ccc2c3c([nH]c2c1)[C@H](C=C(C)C)N1C(=O)[C@@H]2CCCN2C(=O)[C@@H]1C3` [FUMITREMORGIN] registered a Ki of 1.3 µM.

For the next assay, the target named is T1, Broad substrate specificity ATP-binding cassette transporter ABCG2. Nature of the assay: TP_TRANSPORTER: ATP hydrolysis in membrane vesicle from BCRP-expressing Sf9 cells. The assay is classed as functional, cell membranes. The settings on record: read-out: Kact.
On to `COc1cccc2c1C(=O)c1c(O)c3c(c(O)c1C2=O)C[C@@](O)(C(=O)CO)C[C@@H]3O[C@H]1C[C@H](N)[C@H](O)[C@H](C)O1` [DOXORUBICIN], for which the EC50 was 5 µM.

Regarding `COC(=O)c1ccccc1-c1c2ccc(=N)cc-2oc2cc(N)ccc12` [RHODAMINE123], the EC50 stood at 4.5 µM. Still for that read-out and setting: the value for `COc1cc2nc(N3CCN(C(=O)c4ccco4)CC3)nc(N)c2cc1OC` [PRAZOSIN] was 1 µM; that for `COc1cccc2c1C(=O)c1c(O)c3c(c(O)c1C2=O)C[C@@](O)(C(C)=O)C[C@@H]3O[C@H]1C[C@H](N)[C@H](O)[C@H](C)O1` [DAUNORUBICIN] was 2.5 µM.

`O=C1c2c(O)ccc(O)c2C(=O)c2c(NCCNCCO)ccc(NCCNCCO)c21` [MITOXANTRONE]: the EC50 worked out at 7 µM.

Broadly, the Ki is the equilibrium dissociation constant of an inhibitor or competing ligand from its target. Read a high Ki as a looser hold on the target.
